Measurements: article PMC7897990, “TriTOX: A novel Trichomonas vaginalis assay platform for high-throughput screening of compound libraries” (International Journal for Parasitology: Drugs and Drug …, 2021)

Legend:
T. foetus [1] = assay: Pre-optimisation Mtz drug-sensitivity testing, 96-well, T. foetus; format: cell-based; conditions: Tritrichomonas foetus
Description: (§1) For microtiter plate assays, trichomonads were grown in anaerobic conditions within GasPak EZ anaerobe pouches with fresh anaerobic sachets. Working reagent of the chromogen was phenol red (Sigma) in a 1% w/v working solution in phosphate buffered saline (PBS), which was filter sterilised. Chromogen absorbance was monitored at 570 nm on an absorbance microplate reader after plates were allowed to equilibrate in atmospheric conditions at room temperature for at least 5 min.
(§2) After absorbances were measured, data were processed as followed unless indicated otherwise in the text. […] Prism 8 (GraphPad) was used to plot dose-response curves and calculate IC50 values, using a least squares regression, log[inhibitor] vs normalised response (variable slope, four parameters) model. Where replicate plates were used, data for dose-response curves were plotted as the mean±SD of these replicates.
(§3) Trichomonad growth assays were assessed via Mtz drug-sensitivity testing in a medium throughput format (96-wells). Mtz was screened as two-fold, 10-point dilutions between 100 and 0.2 μM. For both T. foetus and T. vaginalis conditions were 5% (v/v) chromogen, well volumes of 100 μL and 200 μL and seeds of 10,000 and 20,000 cells/mL, and absorbance measured at 40 and 65 h. Mtz dose-response curves were plotted and Mtz IC50 calculated for both species, as well as the Z′ for each combination of conditions (volume, seed, timepoint) based on 4 technical replicates as described in Section 2.3.

T. foetus [2] = assay: Medium-throughput (MTS) confirmatory dose-response growth assay, T. foetus; format: cell-based, Tritrichomonas foetus; conditions: Tritrichomonas foetus; 96-well, 10,000 cells/mL in 50 μL, 48 h, mean ± SEM; >10 = no appreciable activity at highest dose
Description: as §1, §2
(§4) A selection of 17 compounds assayed in the high-throughput screen (HTS) for T. vaginalis which were available through BioAustralis were obtained for validation of inhibitory in/activity in our optimised medium-throughput format. For this, a 10-point serial dilution was used for drug-susceptibility testing to calculate IC50 values of ‘hit’ compounds. Mtz was used as a positive control. Each screen was performed with 3 technical replicates and a minimum of 2 biological replicates in both T. vaginalis and T. foetus using assay conditions of seeds of 10,000 cells/mL in 50 μL, with absorbance measured at 48 h. Dose response curves and IC50 were calculated for each compound as described above in Section 2.3.

T. vaginalis [3] = assay: Pre-optimisation Mtz drug-sensitivity testing, 96-well, T. vaginalis; format: cell-based; conditions: Trichomonas vaginalis
Description: as §1, §2, §3

T. vaginalis [4] = assay: Medium-throughput (MTS) confirmatory dose-response growth assay, T. vaginalis; format: cell-based, Trichomonas vaginalis; conditions: Trichomonas vaginalis; 96-well, 10,000 cells/mL in 50 μL, 48 h, mean ± SEM; >10 = no appreciable activity at highest dose
Description: as §1, §2, §4

T. vaginalis [5] = assay: Miniaturised Mtz drug-sensitivity assay, 384-well plates; format: cell-based; conditions: Trichomonas vaginalis
Description: as §1, §2
(§5) Miniaturised assay formats were assessed via Mtz drug-sensitivity for T. vaginalis in 96-well and 384-well plate formats using 5% (v/v) chromogen. For medium-throughput formats, seeds of 15,000 and 50,000 cells/mL were used in well volumes of 50 μL and 100 μL. For high-throughput formats, 25 μL well volumes were evaluated using seeds of 10,000, 20,000 and 40,000 cells/mL, while 50 μL well volumes used seeds of 5000, 10,000 and 20,000 cells/mL.

T. vaginalis [6] = assay: Miniaturised Mtz drug-sensitivity assay, 96-well plates; format: cell-based; conditions: Trichomonas vaginalis
Description: as §1, §2, §5

## Cc1ncc([N+](=O)[O-])n1CCO [Metronidazole]
T. foetus [1]; 40 h, Cα: 10 cells/µL, 100 µL, 40 h, read-out: Mtz IC50 T. foetus
  IC50: 1170 nM
T. foetus [1]; 40 h, Cβ: 20 cells/µL, 100 µL, 40 h, read-out: Mtz IC50 T. foetus
  IC50: 1310 nM
T. foetus [1]; 40 h, Cγ: 10 cells/µL, 200 µL, 40 h, read-out: Mtz IC50 T. foetus
  IC50: 1190 nM
T. foetus [1]; 40 h, Cδ: 20 cells/µL, 200 µL, 40 h, read-out: Mtz IC50 T. foetus
  IC50: 1230 nM
T. foetus [1]; 40 h, pre-optimisation, 40 h, read-out: Mtz IC50 T. foetus, across conditions
  IC50: 1200 nM
T. foetus [1]; 65 h, Cα: 10 cells/µL, 100 µL, 65 h, read-out: Mtz IC50 T. foetus
  IC50: 2170 nM
T. foetus [1]; 65 h, Cβ: 20 cells/µL, 100 µL, 65 h, read-out: Mtz IC50 T. foetus
  IC50: 2700 nM
T. foetus [1]; 65 h, Cγ: 10 cells/µL, 200 µL, 65 h, read-out: Mtz IC50 T. foetus
  IC50: 2070 nM
T. foetus [1]; 65 h, Cδ: 20 cells/µL, 200 µL, 65 h, read-out: Mtz IC50 T. foetus
  IC50: 2380 nM
T. foetus [1]; 65 h, pre-optimisation, 65 h, read-out: Mtz IC50 T. foetus, across conditions
  IC50: 2300 ± 100 nM
T. foetus [2]
  IC50: 1.2 ± 0.1 µM
T. vaginalis [3]; 40 h, Cα: 10 cells/µL, 100 µL, 40 h, read-out: Mtz IC50 T. vaginalis
  IC50: 1630 nM
T. vaginalis [3]; 40 h, Cβ: 20 cells/µL, 100 µL, 40 h, read-out: Mtz IC50 T. vaginalis
  IC50: 2640 nM
T. vaginalis [3]; 40 h, Cγ: 10 cells/µL, 200 µL, 40 h, read-out: Mtz IC50 T. vaginalis
  IC50: 1630 nM
T. vaginalis [3]; 40 h, Cδ: 20 cells/µL, 200 µL, 40 h, read-out: Mtz IC50 T. vaginalis
  IC50: 2160 nM
T. vaginalis [3]; 40 h, pre-optimisation, 40 h, read-out: Mtz IC50 T. vaginalis, across conditions
  IC50: 2000 ± 200 nM
T. vaginalis [3]; 65 h, Cα: 10 cells/µL, 100 µL, 65 h, read-out: Mtz IC50 T. vaginalis
  IC50: 3090 nM
T. vaginalis [3]; 65 h, Cβ: 20 cells/µL, 100 µL, 65 h, read-out: Mtz IC50 T. vaginalis
  IC50: 3210 nM
T. vaginalis [3]; 65 h, Cγ: 10 cells/µL, 200 µL, 65 h, read-out: Mtz IC50 T. vaginalis
  IC50: 2670 nM
T. vaginalis [3]; 65 h, Cδ: 20 cells/µL, 200 µL, 65 h, read-out: Mtz IC50 T. vaginalis
  IC50: 3190 nM
T. vaginalis [3]; 65 h, pre-optimisation, 65 h, read-out: Mtz IC50 T. vaginalis, across conditions
  IC50: 3000 ± 100 nM
T. vaginalis [4]
  IC50: 1.4 ± 0.2 µM
T. vaginalis [5]; 24 h, C5: 384-well, 250 cells/well, 25 µL, 24 h
  IC50: 1220 nM
T. vaginalis [5]; 24 h, C6: 384-well, 500 cells/well, 25 µL, 24 h
  IC50: 2020 nM
T. vaginalis [5]; 24 h, C7: 384-well, 1000 cells/well, 25 µL, 24 h
  IC50: 3210 nM
T. vaginalis [5]; 24 h, C8: 384-well, 250 cells/well, 50 µL, 24 h
  IC50: 759 nM
T. vaginalis [5]; 24 h, C9: 384-well, 500 cells/well, 50 µL, 24 h
  IC50: 1360 nM
T. vaginalis [5]; 24 h, C10: 384-well, 1000 cells/well, 50 µL, 24 h
  IC50: 2330 nM
T. vaginalis [5]; 36 h, C5: 384-well, 250 cells/well, 25 µL, 36 h
  IC50: 623 nM
T. vaginalis [5]; 36 h, C6: 384-well, 500 cells/well, 25 µL, 36 h
  IC50: 888 nM
T. vaginalis [5]; 36 h, C7: 384-well, 1000 cells/well, 25 µL, 36 h
  IC50: 1890 nM
T. vaginalis [5]; 36 h, C8: 384-well, 250 cells/well, 50 µL, 36 h
  IC50: 672 nM
T. vaginalis [5]; 36 h, C9: 384-well, 500 cells/well, 50 µL, 36 h
  IC50: 703 nM
T. vaginalis [5]; 36 h, C10: 384-well, 1000 cells/well, 50 µL, 36 h
  IC50: 893 nM
T. vaginalis [5]; 48 h, C5: 384-well, 250 cells/well, 25 µL, 48 h
  IC50: 1550 nM
T. vaginalis [5]; 48 h, C6: 384-well, 500 cells/well, 25 µL, 48 h
  IC50: 2900 nM
T. vaginalis [5]; 48 h, C7: 384-well, 1000 cells/well, 25 µL, 48 h
  IC50: 4310 nM
T. vaginalis [5]; 48 h, C8: 384-well, 250 cells/well, 50 µL, 48 h
  IC50: 1340 nM
T. vaginalis [5]; 48 h, C9: 384-well, 500 cells/well, 50 µL, 48 h
  IC50: 1500 nM
T. vaginalis [5]; 48 h, C10: 384-well, 1000 cells/well, 50 µL, 48 h
  IC50: 3030 nM
T. vaginalis [6]; 24 h, C2: 96-well, 50 cells/µL, 50 µL, 24 h
  IC50: 2180 nM
T. vaginalis [6]; 24 h, C3: 96-well, 15 cells/µL, 100 µL, 24 h
  IC50: 2910 nM
T. vaginalis [6]; 24 h, C4: 96-well, 50 cells/µL, 100 µL, 24 h
  IC50: 2230 nM
T. vaginalis [6]; 36 h, C1: 96-well, 15 cells/µL, 50 µL, 36 h
  IC50: 1160 nM
T. vaginalis [6]; 36 h, C2: 96-well, 50 cells/µL, 50 µL, 36 h
  IC50: 3740 nM
T. vaginalis [6]; 36 h, C3: 96-well, 15 cells/µL, 100 µL, 36 h
  IC50: 1340 nM
T. vaginalis [6]; 36 h, C4: 96-well, 50 cells/µL, 100 µL, 36 h
  IC50: 3450 nM
T. vaginalis [6]; 48 h, C1: 96-well, 15 cells/µL, 50 µL, 48 h
  IC50: 1580 nM
T. vaginalis [6]; 48 h, C2: 96-well, 50 cells/µL, 50 µL, 48 h
  IC50: 3490 nM
T. vaginalis [6]; 48 h, C3: 96-well, 15 cells/µL, 100 µL, 48 h
  IC50: 1960 nM
T. vaginalis [6]; 48 h, C4: 96-well, 50 cells/µL, 100 µL, 48 h
  IC50: 5010 nM
